Test results reported in the supplement of paper PMC10307832.

How the values were obtained:
Assay in all cases: relative viability (nuclei count vs DMSO), 5 days (fraction); higher = more cells survive
Vismodegib + Phenformin = compound: CS(=O)(=O)c1ccc(C(=O)Nc2ccc(Cl)c(-c3ccccn3)c2)c(Cl)c1 [Vismodegib] + N=C(N)NC(=N)NCCc1ccccc1 [Phenformin] (partner 250 µM)
Method in brief: (§1)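 The day after seeding in 1536-well plates, lung cancer cell lines were treated by pin tool with a single drug, or with a fixed anchor-drug dose together with five library-drug doses (not always all listed) in √10 steps. After 5 days, a combined fix-and-stain solution (final 0.05% Triton X-100, 1% formaldehyde, 1 ug/ml Hoechst) was added. Nuclei counted on 4× images gave relative viability as treated counts over vehicle counts, reported as the median of duplicate plates.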

Vismodegib + Tozasertib = compound: CS(=O)(=O)c1ccc(C(=O)Nc2ccc(Cl)c(-c3ccccn3)c2)c(Cl)c1 [Vismodegib] + Cc1cc(Nc2cc(N3CCN(C)CC3)nc(Sc3ccc(NC(=O)C4CC4)cc3)n2)n[nH]1 [Tozasertib] (partner 0.1 µM)
Method in brief: as §1

VE-821 + Luminespib = compound: CS(=O)(=O)c1ccc(-c2cnc(N)c(C(=O)Nc3ccccc3)n2)cc1 [VE-821] + CCNC(=O)c1noc(-c2cc(C(C)C)c(O)cc2O)c1-c1ccc(CN2CCOCC2)cc1 [Luminespib] (partner 0.01 µM)
Method in brief: as §1

Vismodegib + AZD7762 = compound: CS(=O)(=O)c1ccc(C(=O)Nc2ccc(Cl)c(-c3ccccn3)c2)c(Cl)c1 [Vismodegib] + NC(=O)Nc1cc(-c2cccc(F)c2)sc1C(=O)N[C@H]1CCCNC1 [AZD7762] (partner 0.2 µM)
Method in brief: as §1

| Cell Line | relative viability (Vismodegib + Phenformin; first compound 0.08 µM) | relative viability (Vismodegib + Phenformin; first compound 0.253 µM) | relative viability (Vismodegib + Phenformin; first compound 0.8 µM) | relative viability (Vismodegib + Phenformin; first compound 2.53 µM) | relative viability (Vismodegib + Phenformin; first compound 8 µM) | relative viability (Vismodegib + Tozasertib; first compound 0.08 µM) | relative viability (Vismodegib + Tozasertib; first compound 0.253 µM) | relative viability (Vismodegib + Tozasertib; first compound 0.8 µM) | relative viability (Vismodegib + Tozasertib; first compound 2.53 µM) | relative viability (Vismodegib + Tozasertib; first compound 8 µM) | relative viability (VE-821 + Luminespib; first compound 0.08 µM) | relative viability (VE-821 + Luminespib; first compound 0.253 µM) | relative viability (VE-821 + Luminespib; first compound 0.8 µM) | relative viability (VE-821 + Luminespib; first compound 2.53 µM) | relative viability (VE-821 + Luminespib; first compound 8 µM) | relative viability (Vismodegib + AZD7762; first compound 0.08 µM) | relative viability (Vismodegib + AZD7762; first compound 0.253 µM) | relative viability (Vismodegib + AZD7762; first compound 0.8 µM) | relative viability (Vismodegib + AZD7762; first compound 2.53 µM) | relative viability (Vismodegib + AZD7762; first compound 8 µM) |
| --- | --- | --- | --- | --- | --- | --- | --- | --- | --- | --- | --- | --- | --- | --- | --- | --- | --- | --- | --- | --- |
| NCI-H596 | 0.71 | 0.737 | 0.748 | 0.769 | 0.767 | 1 | 0.814 | 0.932 | 0.838 | 0.769 | 0.978 | 1.09 | 1 | 1.03 | 0.738 | 1.07 | 1.04 | 0.954 | 1.11 | 1.08 |
| NCI-H647 | 0.439 | 0.491 | 0.509 | 0.507 | 0.433 | 0.253 | 0.205 | 0.265 | 0.188 | 0.227 | 0.257 | 0.344 | 0.168 | 0.131 | 0.158 | 0.474 | 0.482 | 0.415 | 0.375 | 0.51 |
| NCI-H650 | 0.469 | 0.417 | 0.45 | 0.418 | 0.393 | 0.725 | 0.778 | 0.705 | 0.743 | 0.718 | 0.986 | 0.94 | 0.662 | 0.883 | 0.798 | 0.958 | 0.925 | 0.864 | 0.953 | 1.06 |
| NCI-H727 | 0.52 | 0.58 | 0.592 | 0.524 | 0.444 | 0.785 | 0.619 | 0.644 | 0.53 | 0.62 | 0.317 | 0.342 | 0.368 | 0.346 | 0.353 | 0.594 | 0.691 | 0.677 | 0.448 | 0.661 |
| NCI-H838 | 0.53 | 0.573 | 0.559 | 0.67 | 0.612 | 0.263 | 0.276 | 0.263 | 0.283 | 0.29 | 0.275 | 0.225 | 0.224 | 0.266 | 0.158 | 0.799 | 0.876 | 0.918 | 0.888 | 0.975 |
| NCI-H1355 | 0.455 | 0.474 | 0.462 | 0.458 | 0.401 | 0.568 | 0.557 | 0.613 | 0.577 | 0.548 | 0.71 | 0.665 | 0.643 | 0.597 | 0.409 | 0.763 | 0.694 | 0.806 | 0.744 | 0.722 |
| NCI-H1395 | 0.345 | 0.397 | 0.411 | 0.439 | 0.485 | 0.823 | 0.771 | 0.71 | 0.667 | 0.81 | 0.7 | 0.677 | 0.704 | 0.636 | 0.525 | 0.42 | 0.397 | 0.412 | 0.455 | 0.41 |
| NCI-H1437 | 0.296 | 0.309 | 0.291 | 0.333 | 0.289 | 0.395 | 0.398 | 0.396 | 0.38 | 0.392 | 1.19 | 1.15 | 1.06 | 1.19 | 0.878 | 1.02 | 1.11 | 1.1 | 1.02 | 1.02 |
